This series is described as follows: in vitro aerosolization performance from MDI, Next Generation Impactor (NGI) with HPLC. The series is classed as physicochemical. Particulars: formulated with R-152a rather than R-134a. Here is the method: Drug was weighed directly into standard aluminium 19 mL cans (C128, Presspart, Blackburn, UK). The cans were then crimped with a 50 μL valve (Bespak, Kings Lynn, UK). Finally, the propellant was filled into the cans through the valve using a manual Pamasol crimper/filler (Pamasol, Switzerland). High performance liquid chromatography (HPLC) was used to determine drug content following aerosolization studies (see below). The HPLC machine consisted of a pump, column oven, column coupled to a UV detector (all Agilent 1200, Wokingham, Berkshire, UK). A Hypersil BDS C18 column (Fisher, Loughborough, UK, 5 μm, 250×4.6 mm i.d.) was used for high-throughput analysis of samples. The in vitro aerosolization performance of the formulations was studied using a Next Generation Impactor (NGI, Copley Scientific, Nottingham UK), which was connected to a vacuum pump (GE Motors, NJ, USA). Prior to testing, the cups of the NGI system were coated with 1% v/v silicone oil in hexane to eliminate particle bounce. For each experiment, three actuations of the can were discharged into the NGI at 30 L·min^−1 as per pharmacopeia guidelines. […] The mass of drug deposited on each part of the NGI was determined by HPLC. This protocol was repeated three times for the can, following which, the fine particle dose (FPD) and fine particle fraction of the emitted dose (FPFED) were determined.

As for salbutamol sulphate, the “emitted dose, comparison in words” value is “significantly (p<0.05) greater”.

Source of the values: patent US9114164B2 (MEXICHEM AMANCO HOLDING S.A. DE C.V., priority 2011, dated 2015).
